The values that follow come from US11603387B2, “SOCS mimetics for the treatment of diseases” (UNIVERSITY OF FLORIDA RESEARCH FOUNDATION, INC., priority 2014, dated 2023).

The subject of one assay is SOCS1. The assay is described as follows: SOCS1 expression (qPCR, relative to GAPDH) in healthy control PBMCs treated in vitro. To be noted: chloroquine diphosphate salt for 12 and 24 h. Type of assay: cell-based, human. On the procedure:
FIGS. 9A and 9B. SOCS1 expression is not affected by chloroquine treatment, but is increased by dexamethasone treatment. (FIG. 9A) PBMCs, taken from healthy controls, were treated with (FIG. 9A) chloroquine diphosphate salt at the indicated molar concentrations for 12 and 24 h or (FIG. 9B) dexamethasone at the indicated molar concentrations for 3, 6, 12, or 24 h. Post treatment, SOCS1 expression, relative to GAPDH, was assessed via qPCR. Results shown as mean±s.e.m. The Kruskal-Wallis test followed by the Dunn's Multiple Comparison Test was chosen to assess statistical significance. (*P<0.05).
PBMCs were purified from heparinized blood by Ficoll-Paque gradient centrifugation. Briefly, whole blood was diluted with PBS (1:1) and gently layered on the Ficoll (Lymphocyte Separation Medium; Cellgro, Manassas, Va.). […]
Using the Promega RNA extraction protocol, total RNA was extracted from human PBMCs ex vivo or from mouse CD4^+CD25^− cells after being cultured under control (anti-CD3 and anti-CD28) or Th17 inducing conditions in the presence or absence of SOCS1-KIR peptide. cDNA synthesis and qPCR were performed as described in (Collins et al. 2011), with modifications. […] The amplification reactions took place in a PTC-200 Peltier Thermal Cycler with a CHROMO 4 Continuous Fluorescence Detector (BioRad). […] The fold change in expression was calculated using the ΔΔCT method.
A general note: Real-time PCR tracks product formation cycle by cycle.

Assay [1] has as its system CD4+CD25− T cells from C56BL/6 mice. The experiment in a line: Th17 induction (iTh17) and activation of CD4+CD25− T cells, SOCS1 monomer vs dimer. To be noted: Th17 inducing conditions, peptide 20 μM, 5 days. Format: cell-based, mouse. How it is done:
FIG. 11. […] CD4+CD25− T cells from B6 mice were in the presence of Th17 inducing conditions in the presence of SOCS1 monomer or dimer for 5 days. Cells were re-stimulated with PMA, ionomycin, and brefeldin, followed by staining with anti-CD4, anti-IL17, and anti-CD25 antibodies.
Induction of Th17 cells, iTh17, and the effect of treatment on induction is illustrated in FIG. 11. CD4^+CD25^− T cells from C56BL/6 mice were incubated for 5 days at 37° C. under 1) control conditions (anti-CD3 (10 μg/ml), anti-CD28 (1.5 μg/ml)); 2) Th17 inducing conditions (anti-CD3, anti-CD28, IL-6 (20 ng/ml), TGF-β (5 ng/ml)); 3) Th17 inducing conditions with SOCS1 monomer (20 μM), or Th17 inducing conditions with SOCS1 dimer (20 μM). Following a 5-day incubation, cells were re-stimulated with phorbol myristic acetate (PMA) (50 ng/ml), ionomycin (1 μM), and brefeldin A (10 μg/ml). To assess Th17 differentiation, cells were stained with anti-CD4 and anti-IL-17A antibodies. To assess activation, cells were stained with anti-CD4 and anti-CD25 antibodies.

The target of the next assay is JAK2 (Homo sapiens, UniProt O60674). The assay is described as follows: Binding to the activation loop of JAK2. To be noted: dimer compared with monomer.
Another assay in a line: Anti-cellular activity. Particulars: dimer compared with monomer. Type of assay: cell-based.
For the next assay, the system named is SLE patients. The assay is described as follows: Subgroup analysis of SLE patients with and without prednisone treatment (PBMC western blot, RT-PCR). Type of assay: in vivo, human. To be noted: SLE patients receiving vs not receiving prednisone. An excerpt:
FIGS. 20A-20F. […] Results shown are mean±SE; *represents significant Pearson correlation; ^ represents a t-test with significant mean difference. Correlation was considered significant at 0.05 level (2 tailed).
The UF Institutional scientific research and review board (IRB) on human subjects approved the study protocol. Written informed consent were obtained from all patients and controls in the study. In all, 34 SLE patients and 11 healthy controls were enrolled in the present study (Table 5). All SLE patients fulfilled the 1982 American College of Rheumatology (ACR) revised criteria for SLE (Tan et al. 1982). The patient's age ranged from 22 to 73 years while the health controls age ranged from 27 to 55 years. Healthy controls (N=11) were recruited from the outpatient clinics at the participating institutions. All patients underwent baseline investigations as per clinical requirements. Disease activity was assessed by the SLE disease activity index (SLEDAI) (Bombardier et al. 1992).
PBMCs were purified from heparinized blood by Ficoll-Hypaque gradient centrifugation. Briefly, whole blood was diluted with PBS (1:1) and gently layered on Ficoll (Lymphocyte Separation Medium; Cellgro, Manassas, Va.). Cells were centrifuged continuously at 400×g for 20 minutes. PBMCs were collected from the interface layer and washed 3 times with PBS. After isolation, PBMCs were lysed with RNA lysis buffer (Promega) and stored at −80° C. until RNA extraction and qPCR protocols were performed.
RT-PCR was performed to determine the transcript levels of SOCS1, SOCS3 and STAT1 genes in PBMCs, relative to GAPDH. In brief, cDNA synthesis was performed using the iQ cDNA synthesis kit (Bio-Rad; Hercules, Calif.). The qPCR was subsequently performed using the iQ SYBR Green Super mix (Bio-Rad) and gene-specific primers for SOCS1, SOCS3, IFN-G and IL-27. The real time RT-PCR reaction was performed on CFX Connect™-Real time system. The PCR for the target gene and GAPDH was duplicated twice for each sample and the results were corrected for GAPDH expression as an internal control. Further the data was analyzed using CFX Manager™ software version 3.0 (Bio-Rad technologies, Inc.).
Frozen PMBC cell pellets were thawed and lysed in RIPA lysis buffer (Santa Cruz Technologies, Inc.) followed by protein estimation through BSA 2.0 mg/ml standard curve preparation with Pierce protein assay reagents (Thermo Scientific Product #23209). Equal quantities of proteins were loaded and separated in 4%-12% SDS PAGE gel (Bio-rad) and separated proteins were transferred to nitrocellulose membrane (Bio-Rad Laboratories, Hercules, Calif.). The membranes were then blocked and incubated with polyclonal anti-rabbit antibodies specific to the KIR regions of SOCS1 and SOCS3 (a kind gift from Dr. Howard Johnson Labs, UF), anti-pSTAT1; anti-pERK1/2; anti-pAKT and for total STAT1; ERK1/2 and AKT respectively (Cell signaling). Further probed with appropriate secondary antibodies conjugated to HRP, and visualized with the ECL detection system according to the manufacturer's instruction (Pierce; Thermo Scientifics) The GAPDH was used as a loading control. The results were calculated as densitometry arbitrary units using the J image online software.
(In general: A western blot detects proteins with antibodies after separation by electrophoresis.)

Sequence of JAK2 (O60674 whole entry, species assumed): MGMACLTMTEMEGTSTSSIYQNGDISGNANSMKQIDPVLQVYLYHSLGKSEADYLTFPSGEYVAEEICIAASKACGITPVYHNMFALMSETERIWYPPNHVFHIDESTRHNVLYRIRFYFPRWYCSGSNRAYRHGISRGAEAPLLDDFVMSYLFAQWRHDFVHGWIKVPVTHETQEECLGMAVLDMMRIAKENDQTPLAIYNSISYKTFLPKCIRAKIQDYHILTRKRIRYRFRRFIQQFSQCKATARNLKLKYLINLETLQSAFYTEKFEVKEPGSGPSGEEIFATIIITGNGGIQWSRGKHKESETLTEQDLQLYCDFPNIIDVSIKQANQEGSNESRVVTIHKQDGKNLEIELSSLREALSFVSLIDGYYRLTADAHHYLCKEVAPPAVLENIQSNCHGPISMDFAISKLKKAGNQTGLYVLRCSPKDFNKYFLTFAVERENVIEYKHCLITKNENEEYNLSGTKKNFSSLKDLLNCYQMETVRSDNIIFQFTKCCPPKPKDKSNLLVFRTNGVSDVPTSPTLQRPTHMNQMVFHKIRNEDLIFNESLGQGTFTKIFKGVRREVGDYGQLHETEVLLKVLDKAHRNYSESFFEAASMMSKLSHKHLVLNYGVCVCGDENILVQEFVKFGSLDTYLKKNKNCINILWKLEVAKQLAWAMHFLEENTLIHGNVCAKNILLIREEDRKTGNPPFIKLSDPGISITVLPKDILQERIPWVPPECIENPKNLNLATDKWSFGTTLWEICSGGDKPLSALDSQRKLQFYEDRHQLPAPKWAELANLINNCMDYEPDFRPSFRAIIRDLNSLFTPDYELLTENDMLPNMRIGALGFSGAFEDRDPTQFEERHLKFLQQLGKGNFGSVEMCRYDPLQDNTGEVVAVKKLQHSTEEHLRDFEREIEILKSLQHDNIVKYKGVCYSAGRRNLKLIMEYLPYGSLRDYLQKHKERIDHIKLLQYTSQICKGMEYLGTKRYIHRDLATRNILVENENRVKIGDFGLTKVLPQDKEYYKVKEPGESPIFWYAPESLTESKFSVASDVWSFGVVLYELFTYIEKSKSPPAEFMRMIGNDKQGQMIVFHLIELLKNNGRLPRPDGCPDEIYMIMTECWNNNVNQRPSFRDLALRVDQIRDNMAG

Turning to `CCN(CC)CCCC(C)Nc1ccnc2cc(Cl)ccc12` (stereo not shown) [chloroquine], the SOCS1 expression entry in the assay on SOCS1 is reported as “not affected”.

As to “DTHFRTFRSHSDYRRIGGGGGGDTHFRTFRSHSDYRRI (SOCS1-KIR dimer peptide) [SOCS1-KIR mimetic as a dimer with a six glycine (G) linker]”, in assay [1], the “Inhibition of CD4+ T cell activation (CD25 staining)” value is on record as “More Effective than SOCS1 Monomer” and the “Inhibition of iTh17 induction (IL-17A staining)” value is “greater inhibitory effects on iTh17 than did the monomer”. Also, the “Avidity for the activation loop of JAK2” value with JAK2 is recorded as “significantly increased the avidity”. The Anti-cellular activity result in the assay “Anti-cellular activity” is reported as “increased anti-cellular activity”.

Consider `C[C@]12C=CC(=O)C=C1CC[C@@H]1[C@@H]2C(=O)C[C@@]2(C)[C@H]1CC[C@]2(O)C(=O)CO` [prednisone], for which, in the assay on SLE patients, the “SOCS 1/3 message expression” value is listed as “no effect”, the SOCS3 protein levels result was “no effect” and the STAT1 phosphorylation entry was “no effect”. For the same molecule, the SOCS1 protein levels result in the assay with SLE patients (significant in inactive SLEDIA (n=9, p<0.001)) is on record as “consistently had higher SOCS1 protein levels”. Besides, in the assay on SLE patients (significant in inactive SLEDIA patients), the pErk1/2 activation result is on record as “higher levels of pErk1/2 activation”.
